# Target: GCN2 (Homo sapiens (Human), UniProt Q9P2K8)
# Assay: GCN2 Biochemical Assay (TR-FRET, GFP-eIF2S1 substrate phosphorylation)
# Conditions: read-out: IC50 (GCN2 Inhibitory Activity)
# Method: Experimental Example 1: GCN2 Biochemical Assay
# An inhibitory effect of the inventive compound on GCN2 was identified as follows.
# 384-well (Greiner #784075) (or 1536-well [Greiner #782075]) plates containing 60 nl (or 20 nl for 1536-well) of compound in 100% DMSO (10 concentrations serially diluted 3.16-fold) were prepared. Two copies of plates were used—one for the GCN2 assay and a second for an artifact plate. Working reagents were prepared as follows—reaction buffer: Tris pH 7.5 20 mM, MgCl2 5 mM, DTT 1 mM, Brij-35 0.005%, EGTA 0.5 mM in water; 2× enzyme solution: GCN2 (produced in-house) 1.6 nM in reaction buffer; 2× substrate solution: GFP-eIFS1 (Thermo Fisher Scientific, PV4809) 50 nM, ATP 0.2 mM, tRNA 0.4 mg/ml in reaction buffer; p-GFP-eIF2S1 (artifact) solution: p-GFP-eIFS1 (produced by incubation of 100 nM GFP-eIF2S1 in reaction buffer with 100 uM ATP and 1 nM PERK KD enzyme for 3 hr at room temperature) 2 nM in reaction buffer; 3× stop/antibody solution: p-GFP-EIF2S1 Th-Ab (Thermo Fisher Scientific, PV4816) 6 nM, AZ13933939 3 uM, BSA 3% in reaction buffer. Reagents were loaded onto a liquid dispenser (Certus FLEX, Trajan Scientific and Medical), and 3 ul (1 ul for 1536-well) of 2× enzyme solution, followed by 3 ul (1 ul for 1536-well) of 2× substrate solution was added to the plates. When small numbers of plates were processed, the enzyme solution was added first to all plates, then the valve used for the substrate solution was primed immediately prior to use. Plates were tapped or spun 1 min/1K/RT to ensure proper mixing, followed by incubation at room temperature for 70 mins, covered/stacked in the dark. For the artifact plate, 6 ul of p-GFP-eIF2S1 solution was added prior to adding the stop/antibody solution. 3 ul (1 ul for 1536-well) of 3× stop/antibody solution was added to the plates, followed by a spin-down for 1 min/1K/RT, and incubation for 2-3 hr, sealed or covered with lids in the dark at room temperature. Plates were read on a plate reader (PHERAstar FSX, BMF Labtech) at Ex 340/Em 490/Em 520 nm.
# GCN2, sequence (Q9P2K8 whole entry): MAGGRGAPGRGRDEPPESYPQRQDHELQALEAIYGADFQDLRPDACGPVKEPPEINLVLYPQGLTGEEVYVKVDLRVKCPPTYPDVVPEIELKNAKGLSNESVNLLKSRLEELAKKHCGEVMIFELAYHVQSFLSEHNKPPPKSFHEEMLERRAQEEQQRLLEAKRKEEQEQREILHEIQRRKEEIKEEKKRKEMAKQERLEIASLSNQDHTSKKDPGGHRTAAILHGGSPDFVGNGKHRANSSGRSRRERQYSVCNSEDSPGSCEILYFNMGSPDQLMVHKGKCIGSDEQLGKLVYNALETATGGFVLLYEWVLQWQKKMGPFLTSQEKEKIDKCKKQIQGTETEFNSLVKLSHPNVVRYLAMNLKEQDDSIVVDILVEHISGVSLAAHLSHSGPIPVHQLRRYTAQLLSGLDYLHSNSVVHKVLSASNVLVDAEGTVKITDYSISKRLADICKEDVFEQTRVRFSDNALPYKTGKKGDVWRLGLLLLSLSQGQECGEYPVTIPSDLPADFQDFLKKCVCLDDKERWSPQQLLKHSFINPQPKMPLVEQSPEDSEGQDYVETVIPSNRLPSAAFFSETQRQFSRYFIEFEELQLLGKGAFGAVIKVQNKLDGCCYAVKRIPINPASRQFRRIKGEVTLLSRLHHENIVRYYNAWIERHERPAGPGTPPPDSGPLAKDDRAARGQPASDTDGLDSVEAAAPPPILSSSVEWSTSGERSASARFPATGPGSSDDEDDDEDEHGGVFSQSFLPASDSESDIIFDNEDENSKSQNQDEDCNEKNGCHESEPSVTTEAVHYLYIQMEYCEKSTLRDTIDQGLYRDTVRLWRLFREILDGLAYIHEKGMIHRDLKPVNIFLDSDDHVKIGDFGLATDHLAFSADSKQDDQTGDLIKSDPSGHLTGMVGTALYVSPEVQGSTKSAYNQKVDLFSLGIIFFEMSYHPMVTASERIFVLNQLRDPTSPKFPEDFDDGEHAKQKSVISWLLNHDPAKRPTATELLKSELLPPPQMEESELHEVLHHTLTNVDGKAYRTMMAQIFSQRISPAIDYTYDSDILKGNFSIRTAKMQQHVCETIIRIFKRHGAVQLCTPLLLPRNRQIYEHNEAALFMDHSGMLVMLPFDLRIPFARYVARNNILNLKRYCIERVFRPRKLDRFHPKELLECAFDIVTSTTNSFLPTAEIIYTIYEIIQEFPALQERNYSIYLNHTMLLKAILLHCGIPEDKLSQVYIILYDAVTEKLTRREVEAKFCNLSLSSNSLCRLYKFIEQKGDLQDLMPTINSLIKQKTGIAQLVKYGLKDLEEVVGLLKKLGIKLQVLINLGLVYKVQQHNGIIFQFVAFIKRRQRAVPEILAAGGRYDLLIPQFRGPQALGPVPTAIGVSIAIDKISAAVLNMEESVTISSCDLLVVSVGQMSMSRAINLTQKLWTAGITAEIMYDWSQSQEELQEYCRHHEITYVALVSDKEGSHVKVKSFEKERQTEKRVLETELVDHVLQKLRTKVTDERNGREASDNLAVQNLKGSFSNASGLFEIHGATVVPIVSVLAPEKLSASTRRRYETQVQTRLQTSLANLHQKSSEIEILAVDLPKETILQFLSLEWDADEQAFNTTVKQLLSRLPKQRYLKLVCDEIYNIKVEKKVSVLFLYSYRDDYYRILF
row,SMILES,IC50
1,"Cc1cnc(Nc2cc(C)n(C)n2)nc1-c1c[nH]c2c(NC(=O)CN3CCC(Oc4ncccn4)CC3)cccc12 [Example 41, N-(3-(2-((1,5-dimethyl-1H-pyrazol-3-yl)amino)-5-methylpyrimidin-4-yl)-1H-indol-7-yl)-2-(4-(pyrimidin-2-yloxy)piperidin-1-yl)acetamide]",10 to 100 nM
2,"Cc1cc(C)nc(OC2CCN(CC(=O)Nc3cccc4c(-c5nc(Nc6cc(C)n(C)n6)ncc5C)c[nH]c34)CC2)n1 [Example 42, N-(3-(2-((1,5-dimethyl-1H-pyrazol-3-yl)amino)-5-methylpyrimidin-4-yl)-1H-indol-7-yl)-2-(4-((4,6-dimethylpyrimidin-2-yl)oxy)piperidin-1-yl)acetamide]",10 to 100 nM
3,"Cc1cnc(Nc2cc(C)n(C)n2)nc1-c1c[nH]c2c(NC(=O)CN3CCC(Oc4cc(C(=O)NC5CC5)on4)CC3)cccc12 [Example 43, N-cyclopropyl-3-((1-(2-((3-(2-((1,5-dimethyl-1H-pyrazol-3-yl)amino)-5-methylpyrimidin-4-yl)-1H-indol-7-yl)amino)-2-oxoethyl)piperidin-4-yl)oxy)isoxazole-5-carboxamide]",10 to 100 nM
4,"Cc1cnc(Nc2cc(C)n(C)n2)nc1-c1c[nH]c2c(NC(=O)CN3CCCC(Oc4cc(C(=O)NC5CC5)on4)C3)cccc12 (stereo not drawn) [Example 44, N-cyclopropyl-3-((1-(2-((3-(2-((1,5-dimethyl-1H-pyrazol-3-yl)amino)-5-methylpyrimidin-4-yl)-1H-indol-7-yl)amino)-2-oxoethyl)piperidin-3-yl)oxy)isoxazole-5-carboxamide]",100 to 1000 nM
5,"Cc1cnc(Nc2cc(C)n(C)n2)nc1-c1c[nH]c2c(NC(=O)CN3CCC(CC#N)C3)cccc12 (stereo not drawn) [Example 45, 2-(3-(cyanomethyl)pyrrolidin-1-yl)-N-(3-(2-((1,5-dimethyl-1H-pyrazol-3-yl)amino)-5-methylpyrimidin-4-yl)-1H-indol-7-yl)acetamide]",100 to 1000 nM
6,"Cc1cnc(Nc2cc(C)n(C)n2)nc1-c1c[nH]c2c(NC(=O)CN3CC[C@H](CC#N)C3)cccc12 [Example 46, (R)-2-(3-(cyanomethyl)pyrrolidin-1-yl)-N-(3-(2-((1,5-dimethyl-1H-pyrazol-3-yl)amino)-5-methylpyrimidin-4-yl)-1H-indol-7-yl)acetamide]",100 to 1000 nM
7,"Cc1cnc(Nc2cc(C)n(C)n2)nc1-c1c[nH]c2c(NC(=O)CN3CC[C@H](Nc4ccncn4)C3)cccc12 [Example 47, (S)-N-(3-(2-((1,5-dimethyl-1H-pyrazol-3-yl)amino)-5-methylpyrimidin-4-yl)-1H-indol-7-yl)-2-(3-(pyrimidin-4-ylamino)pyrrolidin-1-yl)acetamide]",10 to 100 nM
8,"Cc1cnc(Nc2cc(C)n(C)n2)nc1-c1c[nH]c2c(NC(=O)CN3CC[C@@H](Nc4ccncn4)C3)cccc12 [Example 48, (R)-N-(3-(2-((1,5-dimethyl-1H-pyrazol-3-yl)amino)-5-methylpyrimidin-4-yl)-1H-indol-7-yl)-2-(3-(pyrimidin-4-ylamino)pyrrolidin-1-yl)acetamide]",10 to 100 nM

# Results, then the molecule that gave them:
row,IC50,SMILES
1,10 to 100 nM,"Cc1cnc(Nc2cc(C)n(C)n2)nc1-c1c[nH]c2c(NC(=O)CN3CC[C@@H](Nc4ccncc4)C3)cccc12 [Example 49, (R)-N-(3-(2-((1,5-dimethyl-1H-pyrazol-3-yl)amino)-5-methylpyrimidin-4-yl)-1H-indol-7-yl)-2-(3-(pyridin-4-ylamino)pyrrolidin-1-yl)acetamide]"
2,10 to 100 nM,"Cc1cnc(Nc2cc(C)n(C)n2)nc1-c1c[nH]c2c(NC(=O)CN3C[C@@H](F)[C@@H](O)C3)cccc12 [Example 50, N-(3-(2-((1,5-dimethyl-1H-pyrazol-3-yl)amino)-5-methylpyrimidin-4-yl)-1H-indol-7-yl)-2-((3R,4S)-3-fluoro-4-hydroxypyrrolidin-1-yl)acetamide]"
3,10 to 100 nM,"Cc1cnc(Nc2cc(C)n(C)n2)nc1-c1c[nH]c2c(NC(=O)CN3C[C@@H](F)[C@H](Oc4ccncc4)C3)cccc12 [Example 51, N-(3-(2-((1,5-dimethyl-1H-pyrazol-3-yl)amino)-5-methylpyrimidin-4-yl)-1H-indol-7-yl)-2-((3R,4R)-3-fluoro-4-(pyridin-4-yloxy)pyrrolidin-1-yl)acetamide]"
4,< 10 nM,"Cc1cnc(Nc2cc(C)n(C)n2)nc1-c1c[nH]c2c(NC(=O)CN3C[C@H](F)[C@H](Oc4ccnc(NC5CC5)n4)C3)cccc12 [Example 52, 2-((3R,4S)-3-((2-(cyclopropylamino)pyrimidin-4-yl)oxy)-4-fluoropyrrolidin-1-yl)-N-(3-(2-((1,5-dimethyl-1H-pyrazol-3-yl)amino)-5-methylpyrimidin-4-yl)-1H-indol-7-yl)acetamide]"
5,< 10 nM,"Cc1cnc(Nc2cc(C)n(C)n2)nc1-c1c[nH]c2c(NC(=O)CN3C[C@@H](F)[C@H](Oc4ccnc(NC5CC5)n4)C3)cccc12 [Example 53, 2-((3R,4R)-3-((2-(cyclopropylamino)pyrimidin-4-yl)oxy)-4-fluoropyrrolidin-1-yl)-N-(3-(2-((1,5-dimethyl-1H-pyrazol-3-yl)amino)-5-methylpyrimidin-4-yl)-1H-indol-7-yl)acetamide]"
6,10 to 100 nM,"Cc1cnc(Nc2cc(C)n(C)n2)nc1-c1c[nH]c2c(NC(=O)CN3C[C@@H](F)[C@@H](Oc4ccnc(NC5CC5)n4)C3)cccc12 [Example 54, 2-((3S,4R)-3-((2-(cyclopropylamino)pyrimidin-4-yl)oxy)-4-fluoropyrrolidin-1-yl)-N-(3-(2-((1,5-dimethyl-1H-pyrazol-3-yl)amino)-5-methylpyrimidin-4-yl)-1H-indol-7-yl)acetamide]"
7,< 10 nM,"COC(=O)[C@@H]1C[C@H](Oc2ccnc(NC3CC3)n2)CN1CC(=O)Nc1cccc2c(-c3nc(Nc4cc(C)n(C)n4)ncc3C)c[nH]c12 [Example 55, methyl (2S,4S)-4-((2-(cyclopropylamino)pyrimidin-4-yl)oxy)-1-(2-((3-(2-((1,5-dimethyl-1H-pyrazol-3-yl)amino)-5-methylpyrimidin-4-yl)-1H-indol-7-yl)amino)-2-oxoethyl)pyrrolidine-2-carboxylate]"
8,10 to 100 nM,"Cc1cnc(Nc2cc(C)n(C)n2)nc1-c1c[nH]c2c(NC(=O)CN3C[C@@H](Oc4ccnc(NC5CC5)n4)C[C@H]3C(=O)O)cccc12 [Example 56, (2S,4S)-4-((2-(cyclopropylamino)pyrimidin-4-yl)oxy)-1-(2-((3-(2-((1,5-dimethyl-1H-pyrazol-3-yl)amino)-5-methylpyrimidin-4-yl)-1H-indol-7-yl)amino)-2-oxoethyl)pyrrolidine-2-carboxylic acid]"
9,< 10 nM,"Cc1cnc(Nc2cc(C)n(C)n2)nc1-c1c[nH]c2c(NC(=O)CN3C[C@@H](Oc4ccnc(NC5CC5)n4)C[C@H]3CO)cccc12 [Example 57, 2-((2S,4S)-4-((2-(cyclopropylamino)pyrimidin-4-yl)oxy)-2-(hydroxymethyl)pyrrolidin-1-yl)-N-(3-(2-((1,5-dimethyl-1H-pyrazol-3-yl)amino)-5-methylpyrimidin-4-yl)-1H-indol-7-yl)acetamide]"
10,< 10 nM,"Cc1cnc(Nc2cc(C)n(C)n2)nc1-c1c[nH]c2c(NC(=O)CN3C[C@@H](Oc4ccnc(NC5CC5)n4)C[C@H]3C(N)=O)cccc12 [Example 58, (2S,4S)-4-((2-(cyclopropylamino)pyrimidin-4-yl)oxy)-1-(2-((3-(2-((1,5-dimethyl-1H-pyrazol-3-yl)amino)-5-methylpyrimidin-4-yl)-1H-indol-7-yl)amino)-2-oxoethyl)pyrrolidine-2-carboxamide]"
